Here are results for 61 compounds from patent US10538520B2, “Benzamide and nicotinamide compounds and methods of using same” (OncoTartis Inc., priority 2013, dated 2020).

For test [1], the system named is U-937. The test is described as follows: Cytotoxicity towards U-937 cell line. It is filed as cell-based. The settings on record: Homo sapiens. Here is the method:
(§1) In various embodiments, the compounds of the disclosure are those in which show IC50 values in cytotoxicity experiments towards cells lines MV4-11 and U937 of >20 μM, 10-20 μM, 5-10 μM, 1-5 μM, or <1 μM.
(§2) The IC50 is divided into 5 categories: A<1 μM, B 1-5 μM, C 5-10 μM, D 10-20 μM, and E>20 μM.

Test [2] has as its system MV4-11. Nature of the test: Cytotoxicity towards MV4-11 cell line. The class given is cell-based. To be noted: Homo sapiens. Here is the method: as §1, §2

`O=C(NCCCn1ccnc1)c1ccc(CN2CCc3ccccc3C2)cc1` [TT-01902]: the figures for the IC50 in test [1] and in test [2] were 5 to 10 µM and 10 to 20 µM, respectively.
For `O=C(NCCCn1ccnc1)c1ccc(N2CCCC2)c(C#Cc2ccccc2)c1` [TT-02683] the same measures were under 1 µM and under 1 µM.
For `O=C(NCc1cccnc1)c1ccc(-n2cccn2)c(C#Cc2ccccc2)c1` [TT-02684] the same measures were under 1 µM and under 1 µM.
In the case of `O=C(NCCc1c[nH]cn1)c1ccc(-n2cccn2)c(C#Cc2ccccc2)c1` [TT-02686], the IC50 (as a rule, the concentration needed to halve the response being measured) was in the range of 10 to 20 µM in test [1] and 5 to 10 µM in test [2].
Take `Cc1nccn1CCCNC(=O)c1ccc(-n2cccn2)c(C#Cc2ccccc2)c1` [TT-02689]: the IC50 in test [1] and in test [2] was 1 to 5 µM each time.
Turning to `O=C(Nc1ccc(Cn2ccnc2)cc1)c1ccc(-n2cccn2)c(C#Cc2ccccc2)c1` [TT-02690], the IC50 in test [1] lay within 10 to 20 µM; in test [2] it was 5 to 10 µM.
For `Cc1cc(SCCNC(=O)c2ccc(-n3cccn3)c(C#Cc3ccccc3)c2)[nH]n1` [TT-02691], the IC50 in test [1] lay within 5 to 10 µM; in test [2] it was 10 to 20 µM.
In the same order, the values of `Cc1ccn(CCNC(=O)c2ccc(-n3cccn3)c(C#Cc3ccccc3)c2)n1` [TT-02692] are under 1 µM and over 20 µM.
In the same order, the values of `O=C(NCCn1ccnc1)c1ccc(-n2cccn2)c(C#Cc2ccccc2)c1` [TT-02694] are under 1 µM and over 20 µM.
With `O=C(NCCCn1ccnc1)c1ccc(-n2cccn2)c(C#Cc2ccccn2)c1` [TT-02695], the concentration for half-maximal inhibition (IC50) in test [1] and in test [2] was under 1 µM in each case.
As for `O=C(NCCc1nccs1)c1ccc(-n2cccn2)c(C#Cc2ccccc2)c1` [TT-02707], the IC50 in test [1] is under 1 µM; in test [2], over 20 µM.
Regarding `O=C(NCCCn1cccn1)c1ccc(-n2cccn2)c(C#Cc2ccccc2)c1` [TT-02709], the 50% inhibitory concentration (IC50) in test [1] is under 1 µM; in test [2], over 20 µM.
In the same order, the values of `Cn1ccnc1CNC(=O)c1ccc(-n2cccn2)c(C#Cc2ccccc2)c1` [TT-02713] are under 1 µM and over 20 µM.
In the same order, the values of `O=C(NCCCc1cn[nH]c1)c1ccc(-n2cccn2)c(C#Cc2ccccc2)c1` [TT-02715] are under 1 µM and under 1 µM.
Take `O=C(NCCCCn1ccnc1)c1ccc(-n2cccn2)c(C#Cc2ccccc2)c1` [TT-02717]: the IC50 in test [1] and in test [2] was under 1 µM each time.
With `Cn1cnc(CNC(=O)c2ccc(-n3cccn3)c(C#Cc3ccccc3)c2)c1` [TT-02721], the concentration for half-maximal inhibition (IC50) in test [1] and in test [2] was over 20 µM each time.
`O=C(NCCCn1ccnc1)c1ccc(-n2cnnc2)c(C#Cc2ccccc2)c1` [TT-02731]: the IC50 in test [1] and in test [2] was under 1 µM in each case.
In the case of `Cc1nncn1-c1ccc(C(=O)NCCCn2ccnc2)cc1C#Cc1ccccc1` [TT-02732], the IC50 in test [1] and in test [2] was under 1 µM in each case.
Take `O=C(NCCCn1ccnc1)c1ccc(Oc2ccccc2)c(C#Cc2ccccc2)c1` [TT-02741]: the IC50 in test [1] and in test [2] was under 1 µM in each case.
`Cc1ccc(C#Cc2cc(C(=O)NCCCn3ccnc3)ccc2-n2cccn2)cc1` [TT-02745]: the IC50 in test [1] and in test [2] was under 1 µM each time.
With `O=C(NCCCn1ccnc1)c1ccc(-n2cccn2)c(C#Cc2ccc(F)cc2)c1` [TT-02746], the IC50 in test [1] and in test [2] was under 1 µM throughout.
Consider `O=C(NCCCn1ccnc1)c1ccc(-n2cccn2)c(C#Cc2ccc(C(F)(F)F)cc2)c1` [TT-02747], for which the IC50 was 5 to 10 µM in test [1] and 10 to 20 µM in test [2].
`O=C(NCCCn1ccnc1)c1ccc(-n2cccn2)c(C#Cc2cccc(Cl)c2)c1` [TT-02749]: the IC50 in test [1] and in test [2] was under 1 µM each time.
For `O=C(NCCCn1ccnc1)c1ccc(-n2cccn2)c(C#Cc2ccccc2Cl)c1` [TT-02750], the IC50 in test [1] and in test [2] was under 1 µM throughout.
As to `O=C(NCCCn1ccnc1)c1ccc(-n2cccn2)c(C#Cc2ccccc2C(F)(F)F)c1` [TT-02751], the concentration for half-maximal inhibition (IC50) in test [1] and in test [2] was under 1 µM in each case.
As for `C#Cc1cc(C(=O)NCCCn2ccnc2)ccc1-n1cccn1` [TT-02752], the concentration for half-maximal inhibition (IC50) in test [1] was 10 to 20 µM; in test [2], 5 to 10 µM.
As to `O=C(NCCCn1ccnc1)c1cc(C#Cc2ccccc2)c2nccn2c1` [TT-02760], the IC50 in test [1] and in test [2] was 10 to 20 µM in each case.
In the case of `Cn1ccnc1C(C)(O)CC1CCCN1C(=O)c1ccc(-n2cccn2)c(C#Cc2ccccc2)c1` (centres unmarked) [TT-02793], the results for the concentration for half-maximal inhibition (IC50) in test [1] and in test [2] were 5 to 10 µM and over 20 µM, respectively.
With `O=C(c1ccc(-n2cccn2)c(C#Cc2ccccc2)c1)N1CCCC(Cn2ccnc2)C1` (centres unmarked) [TT-02796], the IC50 in test [1] and in test [2] was 10 to 20 µM throughout.
Consider `Cc1nccn1CCN(C)C(=O)c1ccc(-n2cccn2)c(C#Cc2ccccc2)c1` [TT-02797], for which the half-maximal inhibitory concentration (IC50) in test [1] and in test [2] was over 20 µM each time.
`Cc1nonc1CN(C)C(=O)c1ccc(-n2cccn2)c(C#Cc2ccccc2)c1` [TT-02800]: the concentration for half-maximal inhibition (IC50) was in the range of 1 to 5 µM in test [1] and 10 to 20 µM in test [2].
Take `Cc1cc(CN(C)C(=O)c2ccc(-n3cccn3)c(C#Cc3ccccc3)c2)no1` [TT-02801]: the IC50 in test [1] is 1 to 5 µM; in test [2], 10 to 20 µM.
Turning to `Cc1noc(CNC(=O)c2ccc(-n3cccn3)c(C#Cc3ccccc3)c2)n1` [TT-02802], the 50% inhibitory concentration (IC50) in test [1] was 1 to 5 µM; in test [2] it was over 20 µM.
Take `Cn1cnnc1C1CCN(C(=O)c2ccc(-n3cccn3)c(C#Cc3ccccc3)c2)C1` (centres unmarked) [TT-02803]: the IC50 was under 1 µM in test [1] and over 20 µM in test [2].
For `O=C(NCCn1cncn1)c1ccc(-n2cccn2)c(C#Cc2ccccc2)c1` [TT-02804] the same measures were under 1 µM and over 20 µM.
`Cc1nc(C)n(CCNC(=O)c2ccc(-n3cccn3)c(C#Cc3ccccc3)c2)n1` [TT-02805]: the values for the IC50 in test [1] and in test [2] were under 1 µM and 1 to 5 µM, respectively.
For `Cc1cc(C)n(CCNC(=O)c2ccc(-n3cccn3)c(C#Cc3ccccc3)c2)n1` [TT-02927] the same measures were 5 to 10 µM and 10 to 20 µM.
Consider `Cn1nnnc1SCCNC(=O)c1ccc(-n2cccn2)c(C#Cc2ccccc2)c1` [TT-02928], for which the half-inhibitory concentration (IC50) in test [1] was 5 to 10 µM; in test [2], 10 to 20 µM.
In the same order, the values of `O=C(NCCN1CCCC1=O)c1ccc(-n2cccn2)c(C#Cc2ccccc2)c1` [TT-02929] are over 20 µM and over 20 µM.
With `CC(CNC(=O)c1ccc(-n2cccn2)c(C#Cc2ccccc2)c1)n1cncn1` (centres unmarked) [TT-02930], the IC50 in test [1] and in test [2] was over 20 µM in each case.
Consider `O=C(NCc1ccco1)c1ccc(-n2cccn2)c(C#Cc2cccnc2)c1` [TT-02931], for which the IC50 was 10 to 20 µM in test [1] and over 20 µM in test [2].
Regarding `CCc1nnc(NC(=O)c2ccc(-n3cccn3)c(C#Cc3cccnc3)c2)s1` [TT-02932], the 50% inhibitory concentration (IC50) in test [1] and in test [2] was over 20 µM throughout.
For `CC(CNC(=O)c1ccc(-n2cccn2)c(C#Cc2cccnc2)c1)n1cncn1` (centres unmarked) [TT-02933], the IC50 in test [1] and in test [2] was over 20 µM each time.
As for `O=C(NCCCc1ccccn1)c1ccc(-n2cccn2)c(C#Cc2ccccc2)c1` [TT-02935], the concentration for half-maximal inhibition (IC50) in test [1] is 5 to 10 µM; in test [2] it was 10 to 20 µM.
In the same order, the values of `O=C(NCCCN1CCOCC1)c1ccc(-n2cccn2)c(C#Cc2cccnc2)c1` [TT-02936] are over 20 µM and over 20 µM.
Take `O=C(NCCCN1CCCC1=O)c1ccc(-n2cccn2)c(C#Cc2cccnc2)c1` [TT-02937]: the IC50 in test [1] and in test [2] was over 20 µM in each case.
As to `O=C(NCCN1C(=O)CSC1=O)c1ccc(-n2cccn2)c(C#Cc2cccnc2)c1` [TT-02938], the IC50 in test [1] and in test [2] was over 20 µM throughout.
Take `Cn1nnnc1SCCNC(=O)c1ccc(-n2cccn2)c(C#Cc2cccnc2)c1` [TT-02939]: the IC50 in test [1] is 5 to 10 µM; in test [2] it was over 20 µM.
For `Cc1n[nH]c(SCCNC(=O)c2ccc(-n3cccn3)c(C#Cc3cccnc3)c2)n1` [TT-02940], the IC50 in test [1] is 10 to 20 µM; in test [2] it was over 20 µM.
In the case of `O=C(NCCCc1ccccn1)c1ccc(-n2cccn2)c(C#Cc2cccnc2)c1` [TT-02941], the 50% inhibitory concentration (IC50) lay within 5 to 10 µM in test [1] and 10 to 20 µM in test [2].
With `Cc1nn(-c2ccc(C(=O)NCCc3cnccn3)cc2C#Cc2ccccc2)c(C)c1C` [TT-02942], the IC50 is 5 to 10 µM in test [1] and over 20 µM in test [2].
As to `O=C(NCCc1cnccn1)c1ccc(-n2cccn2)c(C#Cc2ccccc2)c1` [TT-02943], the IC50 in test [1] is 1 to 5 µM; in test [2], 10 to 20 µM.
Regarding `O=C(NCc1cccnc1)c1ccc(-n2cccn2)c(C#Cc2cccnc2)c1` [TT-02944], the IC50 is 10 to 20 µM in test [1] and over 20 µM in test [2].
As to `Cc1ccnn1CCNC(=O)c1ccc(-n2cccn2)c(C#Cc2cccnc2)c1` [TT-02945], the IC50 in test [1] and in test [2] was over 20 µM in each case.
In the case of `CC(C)(C)NC(=O)c1ccc(-n2cccn2)c(C#Cc2ccccn2)c1` [TT-02946], the concentration for half-maximal inhibition (IC50) in test [1] is 5 to 10 µM; in test [2] it was over 20 µM.
`CC1CN(c2ncc(C(=O)NCCCc3cn[nH]c3)cc2C#Cc2ccc(F)cc2)CCN1` (centres unmarked) [TT-03756]: the IC50 in test [2] was under 1 µM.
Same read-out and setting: the figure for `CC1CC(C)CN(c2ncc(C(=O)NCCCc3cn[nH]c3)cc2C#Cc2ccc(F)cc2)C1` (centres unmarked) [TT-03761] is under 1 µM; for `COC1CCCN(c2ncc(C(=O)NCCCc3cn[nH]c3)cc2C#Cc2ccc(F)cc2)C1` (centres unmarked) [TT-03762] it is under 1 µM.
The same measure, in the same setting: the figure for `O=C(NCCCc1cn[nH]c1)c1cnc(N2CCOCC2)c(C#Cc2ccc(F)cc2)c1` [TT-03767] is under 1 µM.
In test [2], `O=C1CN(c2ncc(C(=O)NCCCc3cn[nH]c3)cc2C#Cc2ccc(F)cc2)CCN1` [TT-03768] showed a half-inhibitory concentration (IC50) of under 1 µM.
Still for that read-out and setting: the figure for `CC1CN(c2ncc(C(=O)NCCCc3cn[nH]c3)cc2C#Cc2ccc(F)cc2)CCN1C(=O)OC(C)(C)C` (centres unmarked) [TT-03772] is under 1 µM.
